US11427783B2, “Perfuming compositions” (Firmenich SA, priority 2016, dated 2022)
Like-named read-outs stand apart in the source and are kept apart here.

Columns and labels:
[1] = Volatility of perfuming compounds in air; format: physicochemical
[2] = Table 9, perfuming compounds having a gourmand note
[3] = Table 8, perfuming compounds having a sweet note
[4] = Table 10, perfuming compounds having a woody note
[5] = Table 6, perfuming compounds having a fruity note
[6] = Table 5, perfuming compounds having a green note

## O=Cc1ccc2c(c1)OCO2 [benzo[d][1,3]dioxole-5-carbaldehyde]
[1]; [2]
  Volatility (μg/l air): 61.82 μg/l air
physchem
  logP: 1.52

## O=C1CCCCCCCCCCC(=O)OCCO1 [1,4-dioxacyclohexadecane-5,16-dione]
[1]; [3]
  Volatility (μg/l air): 0.46 μg/l air
physchem; n-octanol/water
  logP: 3.83

## CC(C)(C)C1CCC(=O)CC1 [4-(2-methyl-2-propanyl)cyclohexanone]
[1]; [4]
  Volatility (μg/l air): 755.28 μg/l air
physchem; n-octanol/water
  logP: 2.77

## CC(=O)OC1CCC2C(C)(C)CCCC2(C)C1 (stereo not shown) [5,5,8a-trimethyldecahydro-2-naphthalenyl acetate]
[1]; [4]
  Volatility (μg/l air): 14.41 μg/l air
physchem; n-octanol/water
  logP: 5.5

## CCCCCCOC(=O)CCCCC [HEXYL HEXANOATE]
[1]; [5]
  Volatility (μg/l air): 105.52 μg/l air
physchem; n-octanol/water
  logP: 5.56

## C=CC(O)CCCCC (racemic) [(+−)-1-octen-3-ol]
[1]; [6]
  Volatility: 3030.11 μg/l air
physchem; n-octanol/water
  logP: 2.33

## COC(C)(C)[C@H]1CC=C(C)CC1
[1]; [6]
  Volatility: 993.39 μg/l air
physchem; n-octanol/water
  logP: 4.59

## CC/C=C\CCOC(=O)c1ccccc1O [(3Z)-3-hexen-1-yl salicylate]
[1]; [6]
  Volatility: 4.34 μg/l air
physchem; n-octanol/water
  logP: 4.83

## CC(=O)OCc1ccccc1 [benzyl acetate]
physchem; n-octanol/water
  logP: 2.04

## CCCCCCC=O [HEPTANAL]
[1]; [6]
  Volatility: 22184.00 μg/l air
physchem; n-octanol/water
  logP: 2.15

## CC(=O)/C=C/C1C(C)=CCCC1(C)C (racemic)
[1]; [6]
  Volatility: 68.11 μg/l air
physchem
  logP: 4.06

## CC1(C)CC=C(CCC=O)CC1
[1]; [6]
  Volatility: 417.92 μg/l air
physchem; n-octanol/water
  logP: 3.3

## CCCCCCCC(=O)OCC [ethyl octanoate]
[1]; [6]
  Volatility: 800.05 μg/l air
physchem; n-octanol/water
  logP: 4.2

## CC/C(=C\C[C@H]1CC=C(C)C1(C)C)CO
[1]; [4]
  Volatility (μg/l air): 2.75 μg/l air
physchem; n-octanol/water
  logP: 4.44

## CCOc1cc(C=O)ccc1O [3-ethoxy-4-hydroxybenzaldehyde]
[1]; [3]
  Volatility (μg/l air): 0.11 μg/l air
physchem
  logP: 1.27

## CCCC(O)CC[C@@H]1[C@@H](C)CCCC1(C)C (mixture of isomers)
[1]; [4]
  Volatility (μg/l air): 2.34 μg/l air
physchem; n-octanol/water
  logP: 5.42

## CCOC(=O)c1ccccc1 [ETHYL BENZOATE]
physchem
  logP: 2.51

## CCOC(=O)/C(C)=C/C(C)C [ethyl (2E)-2,4-dimethyl-2-pentenoate]
physchem; n-octanol/water
  logP: 3.35

## CCOC(C)=O [ETHYL ACETATE]
physchem
  logP: 0.8

## CCOC(=O)Cc1ccccc1 [ETHYL PHENYLACETATE]
physchem
  logP: 2.1

## CCCCCC1(C)CCC(C)(C)C1=O (racemic)
physchem; n-octanol/water
  logP: 4.63

## COC(=O)C=C1CCCC1 [methyl cyclopentylideneacetate]
physchem; n-octanol/water
  logP: 2.02

## COCCc1ccccc1 [(2-METHOXYETHYL)BENZENE]
[1]; [6]
  Volatility: 1239.07 μg/l air

## CC1C(C)(C)C2=C(C(=O)CCC2)C1(C)C (stereo not shown)
[1]; [4]
  Volatility (μg/l air): 29.81 μg/l air

## C=C1CCCC(C)(C)C1C(=O)OC (racemic)
physchem; n-octanol/water
  logP: 3.93

## CC1(CO)CC1CC1CC2CC2(C)C1(C)C (stereo not shown)
[1]; [4]
  Volatility (μg/l air): 1.74 μg/l air

## CC(=O)OC/C=C(\C)CCC=C(C)C [(E)-3,7-DIMETHYL-2,6-OCTADIENYL ACETATE]
[1]; [5]
  Volatility (μg/l air): 85.23 μg/l air

## COc1cc(C)ccc1O [2-METHOXY-4-METHYLPHENOL]
[1]; [3]
  Volatility (μg/l air): 306.61 μg/l air

## CCCCCC1CCC(=O)O1 (racemic) [(+−)-4-NONANOLIDE]
[1]; [5]
  Volatility (μg/l air): 27.42 μg/l air
[1]; [2]
  Volatility (μg/l air): 27.42 μg/l air

## COc1ccc(COC(C)=O)cc1 [4-METHOXYBENZYL ACETATE]
[1]; [5]
  Volatility (μg/l air): 17.59 μg/l air

## CCOC(=O)C(C)C [ETHYL ISOBUTYRATE]
physchem; n-octanol/water
  logP: 2.03

## CC(C)=CCC/C(C)=C/CO
[1]; Table 7, citrus note
  Volatility: 89.88 μg/l air

## COc1ccc(C(C)=O)cc1 [1-(4-METHOXYPHENYL)-1-ETHANONE”]
[1]; [6]
  Volatility: 50.21 μg/l air

## N#CC(=C1CCCCC1)c1ccccc1 [CYCLOHEXYLIDENE(PHENYL)ACETONITRILE]
[1]; [6]
  Volatility: 0.96 μg/l air

## (−)-(1S)-2,6,6-TRIMETHYL-BICYCLO[3.1.1]HEPT-2-ENE
[1]; [6]
  Volatility: 33722.60 μg/l air

## CC1=C(O)C(=O)CC1 [2-HYDROXY-3-METHYL-2-CYCLOPENTEN-1-ONE]
[1]; [3]
  Volatility (μg/l air): 396.50 μg/l air

## C=CCOC(=O)CCCCC [ALLYL HEXANOATE]
physchem; n-octanol/water
  logP: 3.62

## C[C@@H]1CC[C@H]2C(C)(C)[C@H]3C[C@@]12C[C@@H]1OC(C)(C)O[C@@]13C
[1]; [4]
  Volatility (μg/l air): 0.00 μg/l air

## CCCC(=NO)C(C)C [2-METHYL-3-HEXANONE OXIME]
[1]; [6]
  Volatility: 687.75 μg/l air

## CC1(C)CCC[C@@]2(C)[C@H]1CC[C@@]1(C)OCC[C@@H]21
[1]; [4]
  Volatility (μg/l air): 9.23 μg/l air

## SCc1ccco1 [2-FURANMETHANETHIOL]
[1]; [3]
  Volatility (μg/l air): 29677.31 μg/l air

## Cc1cnc(C)c(C)n1 [2,3,5-TRIMETHYLPYRAZINE]
[1]; [3]
  Volatility (μg/l air): 7897.31 μg/l air

## Cc1ncsc1CCO [2-(4-METHYL-1,3-THIAZOL-5-YL)-1-ETHANOL]
[1]; [3]
  Volatility (μg/l air): 2.36 μg/l air

## CCCCCCC(=O)OCC [ethyl heptanoate]
physchem; n-octanol/water
  logP: 3.58

## CC(=O)O[C@@H]1CC2CC[C@]1(C)C2(C)C
[1]; [4]
  Volatility (μg/l air): 735.37 μg/l air

## CC1CC(C)(C)OC(Cc2ccccc2)O1 (stereo not shown)
[1]; [6]
  Volatility: 29.99 μg/l air

## CC(C)CC(=O)OCc1ccccc1 [BENZYL 3-METHYLBUTANOATE]
[1]; [5]
  Volatility (μg/l air): 63.56 μg/l air
[1]; [3]
  Volatility (μg/l air): 63.56 μg/l air

## CCCCC[C@@H]1OC(=O)C[C@H]1C (racemic) [(+−)-TRANS-3-METHYL-4-NONANOLIDE]
[1]; [5]
  Volatility (μg/l air): 21.05 μg/l air
[1]; [3]
  Volatility (μg/l air): 21.05 μg/l air
[1]; [2]
  Volatility (μg/l air): 21.05 μg/l air

## N#C/C=C/c1ccccc1 [(E)-3-PHENYL-2-PROPENENITRILE]
[1]; [4]
  Volatility (μg/l air): 66.00 μg/l air

## COC(=O)OC1CC/C=C\CCC1 (racemic)
[1]; [6]
  Volatility: 278.83 μg/l air

## CC1CC(C)(c2ccccc2)OC(C)O1 (stereo not shown)
[1]; [5]
  Volatility (μg/l air): 113.83 μg/l air

## CC(=O)OC/C=C/c1ccccc1 [(E)-3-PHENYL-2-PROPENYL ACETATE]
[1]; [5]
  Volatility (μg/l air): 20.47 μg/l air

## CC(C)Cc1ccc2ccccc2n1 [2-ISOBUTYLQUINOLINE]
[1]; [3]
  Volatility (μg/l air): 8.73 μg/l air

## CC(CC=O)c1ccccc1 (racemic) [(+−)-3-PHENYLBUTANAL]
[1]; [6]
  Volatility: 227.83 μg/l air

## C/C=C(\C)C(=O)OCc1ccccc1 [BENZYL (E)-2-METHYL-2-BUTENOATE]
[1]; [5]
  Volatility (μg/l air): 33.88 μg/l air
[1]; [4]
  Volatility (μg/l air): 33.88 μg/l air

## CC(=O)CCc1ccc(O)cc1 [4-(4-HYDROXY-1-PHENYL)-2-BUTANONE]
[1]; [5]
  Volatility (μg/l air): 0.36 μg/l air

## CC(=O)OCCC(C)CCC=C(C)C (stereo not shown) [3,7-DIMETHYL-6-OCTENYL ACETATE]
[1]; [5]
  Volatility (μg/l air): 128.72 μg/l air

## COc1ccc(CCC(C)=O)cc1 [4-(4-METHOXYPHENYL)-2-BUTANONE]
[1]; [5]
  Volatility (μg/l air): 5.58 μg/l air
[1]; [3]
  Volatility (μg/l air): 5.58 μg/l air
[1]; [2]
  Volatility (μg/l air): 5.58 μg/l air

## CCCCC1CCC(=O)O1 (racemic) [(+−)-4-OCTANOLIDE]
[1]; [5]
  Volatility (μg/l air): 108.41 μg/l air
[1]; [2]
  Volatility (μg/l air): 108.41 μg/l air

## CC1=CCC(/C=C/C(C)C(C)O)C1(C)C (stereo not shown)
[1]; [4]
  Volatility (μg/l air): 20.41 μg/l air

## CC/C=C\CCCCC=O [(Z)-6-NONENAL]
[1]; [6]
  Volatility: 2431.73 μg/l air

## CC(C)CCOCCc1ccccc1 [3-METHYLBUTYL 2-PHENYLETHYL ETHER]
[1]; [5]
  Volatility (μg/l air): 110.11 μg/l air
[1]; [3]
  Volatility (μg/l air): 110.11 μg/l air
[1]; [2]
  Volatility (μg/l air): 110.11 μg/l air

## CC=CC(=O)C(C)CC (stereo not shown) [5-METHYL-2-HEPTEN-4-ONE]
[1]; [3]
  Volatility (μg/l air): 5525.83 μg/l air

## CC/C=C\CCOC(C)=O [(Z)-3-HEXENYL ACETATE]
[1]; [6]
  Volatility: 3398.34 μg/l air

## CC1=CCC(C(C)(C)O)CC1 (racemic) [(+−)-ALPHA-TERPINEOL]
[1]; [4]
  Volatility (μg/l air): 172.78 μg/l air

## CCc1occc(=O)c1O [2-ETHYL-3-HYDROXY-4(4H)-PYRANONE]
[1]; [5]
  Volatility (μg/l air): 48.86 μg/l air
[1]; [3]
  Volatility (μg/l air): 48.86 μg/l air

## C=C/C=C/C=C\CCCCC
[1]; [6]
  Volatility: 1247.28 μg/l air

## CC(=O)OCCc1ccccc1 [2-PHENYLETHYL ACETATE]
[1]; [3]
  Volatility (μg/l air): 201.26 μg/l air
[1]; [2]
  Volatility (μg/l air): 201.26 μg/l air

## CC(C)=CC1CC(C)CCO1 (stereo not shown)
[1]; [6]
  Volatility: 2483.93 μg/l air

## CCC(C)(O)CCCC(C)C (racemic)
[1]; [6]
  Volatility: 421.15 μg/l air

## COc1ccc(OC)c(C(C)(C)C)c1 [2-TERT-BUTYL-1,4-DIMETHOXYBENZENE]
[1]; [4]
  Volatility (μg/l air): 82.95 μg/l air

## CCCOC(C)OCCc1ccccc1 (stereo not shown) [1-PHENYL-2-(1-PROPOXYETHOXY)ETHANE]
[1]; [6]
  Volatility: 59.63 μg/l air

## CCCCC1CCCC(=O)O1 (stereo not shown) [5-NONANOLIDE]
[1]; [5]
  Volatility (μg/l air): 23.87 μg/l air
[1]; [3]
  Volatility (μg/l air): 23.87 μg/l air
[1]; [2]
  Volatility (μg/l air): 23.87 μg/l air

## CCCC1CCC(O)C(OC)C1 (stereo not shown) [2-METHOXY-4-PROPYL-1-CYCLOHEXANOL]
[1]
  Volatility: 189.74 μg/l air
